# Data: patent US20120107323A1, “KINASE PROTEIN BINDING INHIBITORS” (University of Florida, priority 2009, published 2012)
# How the values were obtained:
# [1] = system: FAK and IGF-1R pathway effectors; experiment: Western blot of signaling in melanoma cell lines; format: cell-based, human
# Text: Computational Docking The crystal structures of the N-terminal domain of FAK (PDB code 2AL6) (22) and the kinase domain of IGF-1R(PDB 1P40A) (23) were utilized for in silico molecular modeling of their interaction as previously described. The three-dimensional coordinates of compound NSC344553 (INT2-31), obtained from the database of the National Cancer Institute, Developmental Therapeutics Program (NCI/DTP), were docked onto the predicted interface of the amino-terminus of FAK (amino acids 127-243) with the intracytoplasmic portion of IGF-1R (21). All docking calculations were performed with the University of California-San Francisco DOCK 5.1 program, using a clique-matching algorithm to orient small molecule structures with sets of spheres that describe the target sites on FAK (37). 100 orientations were created for NSC344553 in the target site and were scored using the computer program grid-based scoring function. Docking calculations were performed on the University of Florida High Performance Computing supercomputing cluster (http:hpc.ufl.edu). The intermolecular energies for all configurations of NSC 344553 in binding to FAK-NT2 were calculated as the sum of electrostatic and van der Waals energies. These energy terms were evaluated as correlation functions, which were computed efficiently with Fast Fourier Transforms. Production of GST-fusion proteins: The FAK-GST plasmid constructs (pGEX vector) were kindly provided by Dr. Elena Kurenova (Roswell Park Cancer Institute, Buffalo, N.Y.). His-tagged IGF-1R protein was purchased from Blue Sky Biotechnology (Worchester, Mass.). The GST-fusion proteins (FAK fragments) were expressed in BL21 (DE3) Escherichia coli bacteria by incubation with 0.2 mM isopropyl b-D-galactopyranoside (IPTG) for 6 h at 37° C. The bacteria were lysed by sonication, and the fusion proteins were purified with glutathione-Sepharose 4B beads (GE Healthcare, NJ). Pull-down assay: For the pull-down binding assay, His-tagged IGF-1R fragment protein (200 ng) were precleared with GST immobilized on glutathione-Sepharose 4B beads. The precleared His-tagged protein was incubated with 0.2 μg of GST-FAK fusion protein immobilized on the glutathione-Sepharose 4B beads for 1 h at 4° C. and then washed 3× with PBS. Equal amounts of GST-fusion proteins were used for each binding assay. Bound proteins were boiled in 6× Laemmli buffer and analyzed by SDS-PAGE and Western blotting. Immunoprecipitation and western blotting: Cells were washed twice with ice cold 1×PBS and lysed in buffer containing 20 mM Tris, pH 7.4, 150 mM NaCl, 1% NP-40, 5 mM EDTA acid, protease inhibitors (Complete™ Protease Inhibitor, Roche, N.J.) and phosphatase inhibitors (Calbiochem, Calif.). For immunoprecipitation, 100-200 μg of total cell extract was used for each sample. The extracts were incubated with 1 μg of antibody overnight at 4° C. Next, 25 μl of protein A/G-agarose beads were added and the samples were incubated for 2 h at 4° C. The precipitates were washed 4× with lysis buffer and samples containing 30 μg of protein were resolved by SDS-PAGE. The intensity of the bands in the western blots was measured with scion image analysis software program. Short hairpin RNA Transfection of cells: Control shRNA (mock) and FAK shRNAs was obtained from Open Biosystems. The sequences of short hairpin RNAs against human FAK were: (5′-[…] TCCAATCGTTTTG-3′; 5′-[…]-3′) and control shRNA (mock) (5′-[…]-3′). For the transfection of cells (2×10^5 cells/well) were seeded into 6-well plates in 2 ml medium one day prior to transfection. According to the protocols of the manufacturer, cells were transfected using Lipofectamine 2000 reagent (Invitrogen, CA).
# Western blotting: boiled samples containing 30 μg of protein were resolved by sodium dodecyl sulfate-polyacrylamide gel electrophoresis followed by transferring to polyvinylidene difluoride membrane (Bio-Rad, Hercules, Calif.). […]
# MCF10A cells = experiment: Cell viability (MTT), MCF10A; format: cell-based; conditions: Homo sapiens, MCF-10A, 72 hours, read-out: IC50 of INT2-31, cell viability
# Procedure: (§1) Cell viability (MTT) and CFSE Proliferation assay: Cells were plated in 96-well plates and let adhere overnight. After cell treatment, cell viability was measured by 3-(4,5-dimethylthiazol-2-yl)-2,5-diphenyl tetrazolium bromide (MTT) assay (CellTiter 96® Aqueous, Promega, Madison, Wis.).
# (§2) Cell viability and detachment assays: After cells were treated with siRNA transfection, cell viability was measured by 3-(4,5-dimethylthiazol2-yl)-2,5-diphenyl tetrazolium bromide (MTT) assay (CellTiter 96® AQueous, Promega, Madison, Wis.). Briefly, 20 μl of the tetrazolium compound was added to each well. The cells were then incubated at 37° C. for 1 h. The plate was read at 490 nm with a plate reader to determine the viability. In detachment assays, detached and attached cells were harvested separately and counted in a hemocytometer. The percentage of detachment was calculated by dividing the number of detached cells by the total number of cells. Apoptosis assays: After treatment, attached and detached cells were collected, counted and prepared for terminal uridine deoxynucleotidyl transferase (TUNEL) assay by utilizing an APO-BRDU kit (BD Pharmingen, San Diego, Calif.) according to the manufacturer's instructions. Stained cells were analyzed with a fluorescence-activated cell sorting-Calibur flow cytometer (BD Biosciences). […] Apoptotic cells were also analyzed by Hoechst staining. […]
# normal human melanocytes = experiment: Cell viability (MTT), melanocytes; format: cell-based; conditions: Melanocyte, Melonocyte, 72 hours, read-out: IC50 of INT2-31, cell viability
# Procedure: as §1, §2
smiles,measurement,setting,value
"CSc1ncnc2c1ccn2C1O[C@H](COP(=O)(O)O)[C@@H](O)[C@H]1O (stereo partly drawn) [INT2-31, 4-(Methylthio)-7-(5-O-phosphono-D-ribofuranosyl)-{7H-Pyrrolo[2,3-d]pyrimidine}]",dose necessary to significantly decrease p-Akt,[1]; A375 cells,1 to 5 µM
same,time course of Akt phosphorylation,"[1]; C8161, 5 μM, 24, 48 and 72 hours",some dephosphorylation after 24 hours of treatment with a sustained effect at 72 hours
same,dose necessary to significantly decrease p-Akt,[1]; SK-MEL-28 cells,5 to 10 µM
same,p-ERK,"[1]; all cell lines, higher doses",slight decrease
same,constitutive and IGF-1 induced signaling to AKT,[1]; three melanoma cell lines,consistent inhibition
same,constitutive or IGF-1 induced phosphorylation of IGF-1R,[1]; three melanoma cell lines,no significant effect
same,constitutive phosphorylation of FAK,[1]; three melanoma cell lines,no significant effect
same,IC50,MCF10A cells,100 µM
same,IC50,normal human melanocytes,97.3 µM
